One series concerns IDUA and p53 genes. The note with it: cited from earlier work.
In series [1] the test system is LLC-PK1 proximal tubule cells. The note with it: results provided in Sandoval et al.; cited from earlier work.
The next series deals with UGAC stop codon. The experiment in a line: Stop codon readthrough assay. The series is classed as cell-based. Conditions: 200 ug/ml, 24 hours.
The subject of series [2] is LLC-PK1 proximal tubule cells. As to the method:
(§1) Differences in necrosis, apoptosis, and cell density among the various congeners on the human and porcine cell lines were determined using an ANOVA function with Systat 11 software (Systat Software, Point Richmond, Calif.). […] All reported values are mean±SEM.
The nuclear dye propidium iodide is cell impermeant and labels only necrotic cells, characterized by permeable cell membranes; co-localization of the two dyes gives a reddish-pink color. […] Values are means±SEM. Bar=approximately 10 microns.
The nuclear dyes propidium iodide and Hoechst 33342 were used as markers for necrosis and apoptosis, respectively.

A further series concerns COS7 cells. The series can be described thus: Cytotoxicity (cell death, % inviability) in COS7 cells. The series is classed as cell-based. The procedure:
Gentamicin and various congeners isolated and purified by, for example, the HPLC techniques outlined in Sandoval et al. were tested to assess their level of cytotoxicity. Briefly, COS7 cells were grown in the presence of either 200 or 500 ug/ml of one of the following test compounds, the C1 or the C2 congeners of gentamicin or native gentamicin. As a control still another batch of COS7 cells were grown in absence of all of the test compounds.
Referring now to FIG. 6 cell inviability was determined for cells exposed to no test compound, native gentamicin or a congener of gentamicin; in this graph a high value indicate […]. Cell death (% inviability) was determined for each of the six conditions.

The test system of series [3] is multi-drug resistant form of Klebsiella pneumoniae. The series can be described thus: Bactericidal properties against multi-drug resistant Klebsiella pneumoniae. Format: cell-based. The procedure:
(§2) Referring now to Formula 1 and FIG. 1, 4 congeners can be isolated and purified from native gentamicin. Methods for isolating and purifying congeners include the following method. Briefly, separation of native gentamicin was carried out using a C18 column (250×4.60 mm) and the chromatograms was developed using a Waters 600e HPLC pump (Milford, Mass.). A gradient of 100% of a 0.1% (vol/vol) mixture of tri-fluoro-acetic acid in acetonitrile was used to develop the chronogram. […] There was no overlap between adjacent peaks. For all studies, the same lot of gentamicin was used. This ensured that the results obtained were independent of potential alteration in the ratio of gentamicin components. […] For additional discussion of this methodology please see, for example, Sandoval, et al.

Series [4] concerns Gram-positive and multi-drug-resistant Gram-negative bacteria. Conditions: Sandoval et al.; cited from earlier work.
A further series relates to viable cells. The series can be described thus: Cytotoxicity by dye exclusion assay (FIG. 7). Format: cell-based. The note with it: viable cells treated vs untreated. As to the method: FIG. 7 also includes information on the cell toxicity. Cytotoxicity was measured by comparing the number of viable cells in treated and untreated samples using a dye exclusion assay of the compounds tested. […] (the […]) was the most toxic compound tested 4.4 fold more toxic than the control (no added aminoglycoside) followed by […] (native gentamicin) 1.7 times more toxic than the control; the least toxic compound tested was […]

A further series relates to LLC-PK1 cells. The experiment in a line: Long-term (24 h) exposure: lysosome and Golgi complex localization in LLC-PK1 cells. Conditions: 24 h of continuous exposure.
A short description of series [5]: Nephrotoxicity in rats: serum creatinine after six daily doses. As to the method:
as §1
We specifically used six daily doses for these studies to allow additional time for the C2 component to induce injury, because it is widely known that serum creatinine rises early in this model when native gentamicin is used.

A further series relates to Bacillus subtilus. The experiment in a line: Bactericidal properties against Bacillus subtilus. Format: cell-based. The procedure: as §2
Series [6] has as its system proximal convoluted tubules. The series can be described thus: Kidney morphology and histology in rats (H&E, PAS, modified Jablonski score, gentamicin immunofluorescence). The series is classed as in vivo, Sprague-Dawley rats. The note with it: six doses. As to the method: Morphologic evaluation of injury caused by gentamicin and its congeners was assessed by grading the extent of necrosis of the proximal convoluted tubules. Injury scores were assigned on the basis of the predominant pattern present. For indirect immunofluorescence, 100 μm-thick sections were cut on a vibratome and stained with the monoclonal anti-gentamicin antibody (Biodesign International, Saco, Me.) and a fluorescein-conjugated secondary antibody (Jackson Immunoresearch, West Grove, Pa.) and lightly counterstained with Alexa 647 phalloidin (Molecular Probes) to localize filamentous actin for visualization using confocal microscopy.
Histological sections were viewed with a Wide field Nikon microscope with an attached color CCD camera (Nikon, Melville, N.Y.). Fluorescence images were acquired using a Bio-Rad MRC 1024 confocal microscope (Bio-Rad, Hercules, Calif.) on a Nikon platform (The Fryer Co., Huntley, Ill.). Co-localization studies with Texas Red dextran, FITC-Helixpontatia, and gentamicin were conducted on a Zeiss 510 confocal microscope with images illuminated and acquired sequentially to eliminate bleed-over emissions from the different fluorescence emission spectra.
Again, these studies were conducted after 7 days of exposure, or six doses of gentamicin. This was to ensure that we would see any delayed nephrotoxicity from the […]. These studies occurred at a time when the native gentamicin-treated animals were recovering, as evidenced by a reduction in serum creatinine levels in these animals. Therefore, these studies likely underestimate the actual histological damage that occurred early on in animals treated with native gentamicin. […] In addition, large perinuclear vacuoles (FIG. 3 B, arrowheads) could be seen in the renal corticol area. […] Here, proximal tubules from native gentamicin treated rats contained cast material and shed cells in the lumen (thick arrow). In addition, many of the proximal table cells contained large vacuoles that localized around the nucleus (FIG. 3 B, arrowheads).
Referring now to FIG. 3 D-E, thin histological sections also were stained with PAS to localize the glycocalyx that was associated with the brush border membrane of proximal tubules. […]
Referring now to FIG. 3 G-H, when tissues from rats that were exposed to the native commercial gentamicin compound or the […] of gentamicin were processed for indirect immunofluorescence localization of gentamicin, a difference in the intracellular accumulation and distribution emerged. […] Tissue sections from rats that were treated with normal saline alone and processed identically for immunofluorescence localization produced no fluorescence associated with gentamicin localization (data not shown).

The test system of the next series is dystrophin. The series can be described thus: Dystrophin immunohistochemistry in mdx mice after i.m. treatment. Format: in vivo. Conditions: about 1 or 5 mg/day, 7 days. As to the method: Eight mdx mice are treated with I.M. injections of either gentamicin or the […] of gentamicin (C2 in Formula I) four of the mice receive either gentamicin or the […] at a dose of about 1 mg/day and the other four mice receive the same compounds at a dose of about 5 mg/day. The animals are dosed over a period of 7 days. […] All mice are sacrificed, their skeletal muscle and their hearts are frozen and cryostat sectioned. The presence of dystrophin in these sections is investigated by immunohistochemistry. Strong dystrophin immunostaining is observed in the normal skeletal and heart muscles. In the untreated mdx muscles, dystrophin immunostaining is observed only in a few revertant fibers. […] The dystrophin staining is less intense in the muscles of mice treated with […]. Therefore a dose of about 8 to 40 mg per Kg of body weight per day of either gentamicin or the […] of gentamicin successfully suppresses the premature stop codon by inserting an amino acid, and continuing translation of […] nucleic acids. Subcutaneous and intravenous administration will provide the same results. The duration of the course of treatment may vary. […]

Where [7] appears, read: LLC-PK1 cells, 24 hours of exposure.

“Also recorded” adds a separate entry of the source. Some results are limits rather than exact numbers.

Description for LLC-PK1 cells: During this period of exposure to native gentamicin or the congeners, lysosomes were labeled by adding a 10,000 molecular weight rhodamine dextran to the culture medium (0.5 mg/ml; Molecular Probes). The cells then were fixed and stained for indirect immunofluorescence and visualized via confocal microscopy. Briefly, the Golgi complex was localized with a fluorescein-conjugated lectin from Helix pornotia at 5 μg/ml (EY Laboratories, San Mateo, Calif.) diluted in solution that contained the CY-5 conjugated secondary antibody that was used in the indirect immunolocalization of gentamicin. Visualization of nonlysosomal, cytosolic gentamicin was carried out as described previously, using a Tyramide Signal Amplification (Molecular Probes).
In order to study long-term differences in the intracellular distribution of gentamicin, we undertook additional study of gentamicin distribution in LLC-PK1 cells. […]
Description for UGAC stop codon: The cells were exposed to 200 ug/ml of each compound for 24 hours.
The method used to assess readthrough is as follows.
In order to determine the optimal concentrations of the aminoglycosides to use in the mammalian translation system, increasing amounts of each aminoglycoside were added to a rabbit reticulocyte translation system while expressing the QX(N) (UGAC) construct. The effect of aminoglycoside addition on total protein synthesis was monitored by comparing the total amount of proteins synthesized in the presence and absence of various aminoglycosides. A range of aminoglycoside concentrations was then determined that allowed a maximal amount of termination suppression without inhibiting total protein synthesis more than two- to threefold. In vitro translation reactions were carried out using the TNT coupled transcription/translation system (Promega). […] The gel was dried and subjected to PhosphorImager analysis in order to quantitate the amount of truncated and full-length protein species. The percentage of readthrough was then calculated as the amount of full-length protein/(truncated+full-length species)×100.

Consider `NCC[C@H](O)C(=O)N[C@@H]1C[C@H](N)[C@@H](O[C@H]2O[C@H](CN)[C@@H](O)[C@H](O)[C@H]2O)[C@H](O)[C@H]1O[C@H]1O[C@H](CO)[C@@H](O)[C@H](N)[C@H]1O` [Amikacin], for which the “premature stop codons overcome” value with IDUA and p53 genes is on record as “can be overcome”.

Regarding gentamicin C2, the “toxicity in cell culture” value in [1] is “nontoxic”. In addition, the “readthrough of the UGAC stop codon” value with UGAC stop codon is listed as “intermediate effect on readthrough”. Moreover, in series [2] (setting [7]), the “cell density, % of untreated (control) values” came out at 80.3±5.7% and the “percentage of cell death (toxicity index)” value was 3.1±1.3%. Further, in series [2] (cultured cells, 24 hours of continual exposure), the “cytotoxicity in cell culture (in words)” value is reported as “minimal cytotoxicity; also recorded: markedly reduced toxicity; also recorded: minimal evidence of toxicity”. The “toxicity (cell death, % inviability)” value in the series with COS7 cells (200 ug/ml) is reported as “virtually no toxicity”. Moreover, the “toxicity (cell death, % inviability)” value in the series with COS7 cells (500 ug/ml) is reported as “only very minimal toxicity”. The bactericidal properties result in series [3] is on record as “excellent bactericidal properties”. Besides, the “bactericidal potency compared with native gentamicin and other congeners” value in [4] is reported as “as potent a bactericide”. In addition, in the series on viable cells, the “toxicity relative to control (no added aminoglycoside)” value is reported as “no more toxic than the control”. Further, in the series with LLC-PK1 cells, the “Golgi complex staining with Helix pomatia lectin” value is reported as “faint” and the “lysosome appearance (Texas Red dextran)” value is reported as “small, discrete vesicles found throughout the cellular cytosol”. The “change in serum creatinine (in words)” value in series [5] (100 mg/kg per day intraperitoneally, six daily doses) is listed as “no elevation in serum creatinine”. The compound further came in with a serum creatinine in series [5] (100 mg/kg per day intraperitoneally, six daily doses, up to 24 hours after the last injection) of at most 0.2 mg/dL. Also, the “functional and pathologic changes characteristic of gentamicin nephrotoxicity” value in [5] (animal studies) was “failed to induce”. Moreover, the bactericidal properties entry with Bacillus subtilus is reported as “excellent bactericidal properties”. Moreover, the “renal injury, modified Jablonski score” value in [6] (rat cortex, compared with native gentamicin) is on record as “significantly reduced; also recorded: significantly lower”. Moreover, in series [6] (rats, 7 days of exposure), the “kidney morphology, H&E-stained sections” value is “normal morphology”; the “lysosomal morphology in proximal tubule cells, indirect immunofluorescence” value was “normal lysosomal morphology”; the “proximal tubular brush border, PAS staining” value is “more abundant and enriched PAS staining”. Also, in the series on dystrophin, the “dystrophin immunostaining in skeletal and heart muscle” value is “detected by immunohistochemistry on all muscle fibers and all heart muscle cells”.

Turning to gentamicin C1 [reference compound], the “readthrough of the UGAC stop codon” value in the series on UGAC stop codon is “minimal readthrough”. Further, the “toxicity ranking (cell death, % inviability)” value in the series on COS7 cells (200 or 500 ug/ml) is “greatest toxicity”. Besides, in the series with viable cells, the “toxicity relative to control (no added aminoglycoside)” value was found to be 4.4 fold.

For `NC[C@H]1O[C@H](O[C@H]2[C@H](O)[C@@H](O[C@H]3O[C@H](CO)[C@@H](O)[C@H](N)[C@H]3O)[C@H](N)C[C@@H]2N)[C@H](N)C[C@@H]1O` [Tobramicin], the “premature stop codons overcome” value in the series on IDUA and p53 genes was “not”.

The values are drawn from patent publication US9775854B2 (Indiana University Research and Technology Corp., priority 2006, dated 2017).
